Legend:
NCI-H2228 = assay: Antiproliferative activity against human NCI-H2228 cells assessed as inhibition of cell proliferation incubated for 96 hrs by cell-titer-Glo assay; format: functional, cell-based; conditions: NCI-H2228, 96 h
[1] = biological target: ALK tyrosine kinase receptor (Homo sapiens, UniProt Q9UM73, L1196M); assay: Inhibition of ALK L1196M mutant (unknown origin) using TK substrate-biotin incubated for 30 mins by HTRF assay
[2] = Antiproliferative activity against human KARPAS299 cells assessed as inhibition of cell proliferation incubated for 96 hrs by cell-titer-Glo assay; format: functional, cell-based; conditions: KARPAS-299, 96 h
[3] = biological target: ALK tyrosine kinase receptor (Homo sapiens, UniProt Q9UM73); assay: Inhibition of wild type human recombinant ALK using TK substrate-biotin incubated for 30 mins by HTRF assay
[4] = Clearance in rat; format: ADME, organism-based; conditions: in vivo
[5] = Half life in beagle dog at 1 mg/kg, iv by LC-MS/MS method; format: ADME, organism-based, Canis lupus familiaris; conditions: in vivo
[6] = Tmax in beagle dog at 3 mg/kg, po by LC-MS/MS method; format: ADME, organism-based, Canis lupus familiaris; conditions: in vivo
[7] = Clearance in beagle dog at 1 mg/kg, iv by LC-MS/MS method; format: ADME, organism-based, Canis lupus familiaris; conditions: in vivo
Mus musculus = assay: Toxicity in human NCI-H2228 cells xenografted Balb/c mouse EML4-ALK NSCLC model assessed as induction of body weight loss at 30 mg/kg, po qd for 2 weeks; format: organism-based; conditions: in vivo, 336 h
[8] = Oral bioavailability in beagle dog at 3 mg/kg by LC-MS/MS method; format: ADME, organism-based, Canis lupus familiaris; conditions: in vivo
[9] = AUC (0 to infinity) in Sprague-Dawley rat at 1 mg/kg, iv by LC-MS/MS method; format: ADME, organism-based; set-up: dose 1 mg/kg, route intravenous, time infinity; conditions: in vivo
[10] = AUC (0 to infinity) in beagle dog at 1 mg/kg, iv by LC-MS/MS method; format: ADME, organism-based, Canis lupus familiaris; set-up: dose 1 mg/kg, route intravenous, time infinity; conditions: in vivo
[11] = Cmax in beagle dog at 3 mg/kg, po by LC-MS/MS method; format: ADME, organism-based, Canis lupus familiaris; set-up: dose 3 mg/kg, route oral; conditions: in vivo
[12] = Oral bioavailability in Sprague-Dawley rat at 5 mg/kg by LC-MS/MS method; format: ADME, organism-based; conditions: in vivo
[13] = Clearance in Sprague-Dawley rat at 1 mg/kg, iv by LC-MS/MS method; format: ADME, organism-based; conditions: in vivo
[14] = Half life in Sprague-Dawley rat at 1 mg/kg, iv by LC-MS/MS method; format: ADME, organism-based; conditions: in vivo
[15] = Cmax in Sprague-Dawley rat at 5 mg/kg, po by LC-MS/MS method; format: ADME, organism-based; set-up: dose 5 mg/kg, route oral; conditions: in vivo
[16] = Volume of distribution in Sprague-Dawley rat at 1 mg/kg, iv by LC-MS/MS method; format: ADME, organism-based; conditions: in vivo
[17] = AUC (0 to infinity) in Sprague-Dawley rat at 5 mg/kg, po by LC-MS/MS method; format: ADME, organism-based; set-up: dose 5 mg/kg, time infinity, route oral; conditions: in vivo
[18] = Tmax in Sprague-Dawley rat at 5 mg/kg, po by LC-MS/MS method; format: ADME, organism-based; conditions: in vivo
[19] = Volume of distribution in beagle dog at 1 mg/kg, iv by LC-MS/MS method; format: ADME, organism-based, Canis lupus familiaris; conditions: in vivo
[20] = AUC (0 to infinity) in beagle dog at 3 mg/kg, po by LC-MS/MS method; format: ADME, organism-based, Canis lupus familiaris; set-up: dose 3 mg/kg, route oral, time infinity; conditions: in vivo

ALK tyrosine kinase receptor (Homo sapiens, UniProt Q9UM73, L1196M), sequence (Q9UM73 19-1620 L1196M limits assumed): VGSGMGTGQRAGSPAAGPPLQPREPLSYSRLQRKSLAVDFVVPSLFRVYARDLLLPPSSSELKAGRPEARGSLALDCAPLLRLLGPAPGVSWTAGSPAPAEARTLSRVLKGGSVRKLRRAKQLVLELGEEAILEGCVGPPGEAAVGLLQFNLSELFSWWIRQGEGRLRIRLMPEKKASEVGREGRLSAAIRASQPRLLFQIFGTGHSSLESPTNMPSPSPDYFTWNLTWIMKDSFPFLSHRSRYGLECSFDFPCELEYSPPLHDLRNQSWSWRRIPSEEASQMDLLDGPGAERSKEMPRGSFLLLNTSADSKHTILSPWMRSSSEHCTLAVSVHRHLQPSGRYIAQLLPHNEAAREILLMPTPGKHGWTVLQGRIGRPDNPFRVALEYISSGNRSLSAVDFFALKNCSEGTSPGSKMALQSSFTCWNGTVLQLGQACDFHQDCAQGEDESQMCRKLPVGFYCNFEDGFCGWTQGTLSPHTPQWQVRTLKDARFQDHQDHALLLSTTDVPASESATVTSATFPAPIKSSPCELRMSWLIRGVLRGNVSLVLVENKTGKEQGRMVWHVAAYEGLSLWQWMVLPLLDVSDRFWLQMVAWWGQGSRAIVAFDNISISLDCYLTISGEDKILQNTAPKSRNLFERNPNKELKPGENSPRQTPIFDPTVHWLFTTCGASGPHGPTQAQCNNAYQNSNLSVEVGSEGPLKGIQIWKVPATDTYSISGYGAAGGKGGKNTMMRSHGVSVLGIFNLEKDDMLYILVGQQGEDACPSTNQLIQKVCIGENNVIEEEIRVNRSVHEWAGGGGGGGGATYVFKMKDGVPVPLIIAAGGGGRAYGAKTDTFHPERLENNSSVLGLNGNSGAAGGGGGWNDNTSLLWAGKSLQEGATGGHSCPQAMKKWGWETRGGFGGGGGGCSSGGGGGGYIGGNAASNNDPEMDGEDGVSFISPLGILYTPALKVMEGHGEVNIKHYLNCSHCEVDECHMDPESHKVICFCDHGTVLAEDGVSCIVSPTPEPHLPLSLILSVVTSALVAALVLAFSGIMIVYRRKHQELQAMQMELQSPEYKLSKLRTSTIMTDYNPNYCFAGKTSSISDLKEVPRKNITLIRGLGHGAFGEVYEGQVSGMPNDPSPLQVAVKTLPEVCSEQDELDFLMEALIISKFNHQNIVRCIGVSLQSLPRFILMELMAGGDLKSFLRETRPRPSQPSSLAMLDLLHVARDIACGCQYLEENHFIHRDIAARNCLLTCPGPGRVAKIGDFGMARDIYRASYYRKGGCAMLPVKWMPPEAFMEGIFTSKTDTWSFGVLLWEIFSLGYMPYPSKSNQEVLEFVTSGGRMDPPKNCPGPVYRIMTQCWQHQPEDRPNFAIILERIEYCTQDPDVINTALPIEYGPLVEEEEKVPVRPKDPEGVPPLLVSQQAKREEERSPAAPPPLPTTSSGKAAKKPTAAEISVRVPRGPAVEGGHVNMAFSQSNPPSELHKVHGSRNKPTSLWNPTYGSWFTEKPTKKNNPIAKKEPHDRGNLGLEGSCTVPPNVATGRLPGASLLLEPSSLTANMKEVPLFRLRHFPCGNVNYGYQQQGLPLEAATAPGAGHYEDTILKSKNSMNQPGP
ALK tyrosine kinase receptor (Homo sapiens, UniProt Q9UM73), sequence (Q9UM73 whole entry): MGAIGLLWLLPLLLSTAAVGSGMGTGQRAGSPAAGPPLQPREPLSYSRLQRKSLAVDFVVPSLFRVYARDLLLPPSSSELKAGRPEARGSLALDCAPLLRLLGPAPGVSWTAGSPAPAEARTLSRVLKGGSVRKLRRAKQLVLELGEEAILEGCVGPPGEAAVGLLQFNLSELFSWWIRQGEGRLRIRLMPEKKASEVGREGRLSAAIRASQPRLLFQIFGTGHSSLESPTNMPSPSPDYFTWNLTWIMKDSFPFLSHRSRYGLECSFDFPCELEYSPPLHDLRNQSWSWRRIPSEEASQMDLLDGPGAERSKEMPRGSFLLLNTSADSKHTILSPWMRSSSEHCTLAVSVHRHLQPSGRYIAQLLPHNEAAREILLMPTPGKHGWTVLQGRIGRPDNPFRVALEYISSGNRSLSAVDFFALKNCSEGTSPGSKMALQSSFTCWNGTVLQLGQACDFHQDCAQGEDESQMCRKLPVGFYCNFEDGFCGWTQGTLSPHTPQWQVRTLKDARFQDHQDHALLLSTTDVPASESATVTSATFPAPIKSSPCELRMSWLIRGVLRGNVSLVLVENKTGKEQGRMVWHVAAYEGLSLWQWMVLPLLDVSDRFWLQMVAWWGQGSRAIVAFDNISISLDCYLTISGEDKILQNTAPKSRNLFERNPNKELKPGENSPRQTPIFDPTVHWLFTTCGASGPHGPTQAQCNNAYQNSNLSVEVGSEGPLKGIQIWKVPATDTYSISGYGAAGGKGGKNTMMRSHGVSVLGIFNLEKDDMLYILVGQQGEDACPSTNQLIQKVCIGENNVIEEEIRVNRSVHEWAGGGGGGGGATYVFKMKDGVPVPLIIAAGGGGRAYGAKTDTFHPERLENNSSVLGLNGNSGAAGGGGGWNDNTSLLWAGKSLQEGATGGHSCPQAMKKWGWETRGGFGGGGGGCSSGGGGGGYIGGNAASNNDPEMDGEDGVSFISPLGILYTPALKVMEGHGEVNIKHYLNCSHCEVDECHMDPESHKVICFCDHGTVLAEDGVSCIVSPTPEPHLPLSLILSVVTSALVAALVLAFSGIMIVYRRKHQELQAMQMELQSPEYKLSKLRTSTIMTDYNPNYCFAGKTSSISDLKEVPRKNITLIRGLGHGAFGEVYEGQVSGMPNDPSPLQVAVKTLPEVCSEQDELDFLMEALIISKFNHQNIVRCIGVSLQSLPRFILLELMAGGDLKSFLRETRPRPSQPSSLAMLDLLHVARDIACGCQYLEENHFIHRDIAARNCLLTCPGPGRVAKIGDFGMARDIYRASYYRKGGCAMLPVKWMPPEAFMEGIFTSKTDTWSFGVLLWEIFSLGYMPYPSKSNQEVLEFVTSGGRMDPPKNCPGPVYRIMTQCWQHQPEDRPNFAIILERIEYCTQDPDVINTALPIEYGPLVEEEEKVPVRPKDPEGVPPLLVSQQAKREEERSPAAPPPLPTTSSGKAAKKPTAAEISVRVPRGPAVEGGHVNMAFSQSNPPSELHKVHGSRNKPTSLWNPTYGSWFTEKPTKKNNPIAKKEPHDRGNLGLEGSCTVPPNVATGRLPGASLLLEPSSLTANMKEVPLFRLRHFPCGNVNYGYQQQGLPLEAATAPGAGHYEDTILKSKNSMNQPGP

Compound	IC50 (NCI-H2228) [nM]	IC50 [2] [nM]	other results
Cc1cc(Nc2ncc(Cl)c(Nc3cn(C)nc3S(=O)(=O)C(C)C)n2)c(OC(C)C)cc1C1CCNCC1	225	17	IC50 [1]: 20 nM; IC50 [3]: 8 nM
CC(C)S(=O)(=O)c1nn(C)cc1Nc1nc(Nc2cc(C#N)c(C3CCN(C)CC3)cc2OC2CC2)ncc1Cl	165	100	
Cc1cc(Nc2ncc(Cl)c(Nc3cn(C)nc3S(=O)(=O)C(C)C)n2)c(C(F)(F)F)cc1C1CCN(C)CC1	1080	74	
Cc1cc(Nc2ncc(Cl)c(Nc3cn(C)nc3S(=O)(=O)C(C)C)n2)c(OC(CF)CF)cc1C1CCN(C)CC1	403	62	
Cc1cc(Nc2ncc(Cl)c(Nc3cn(C)nc3S(=O)(=O)C(C)C)n2)c(OC(C)C)cc1C1CN(C)C1	270	17	IC50 [1]: 5 nM; IC50 [3]: 2 nM
Cc1cc(Nc2ncc(Cl)c(Nc3cn(C)nc3S(=O)(=O)C(C)C)n2)c(OC(F)(F)F)cc1C1CCN(C)CC1	374	20	
Cc1cc(Nc2ncc(Cl)c(Nc3cn(C)nc3S(=O)(=O)C(C)C)n2)c(OC2CC2)cc1C1CCNCC1	122	9	
CCNC(=O)N1CCC(c2cc(OC3CC3)c(Nc3ncc(Cl)c(Nc4cn(C)nc4S(=O)(=O)C(C)C)n3)cc2C)CC1	82	20	IC50 [1]: 6 nM; IC50 [3]: 4 nM
CC(C)S(=O)(=O)c1nn(C)cc1Nc1nc(Nc2cc(Cl)c(C3CCN(C)CC3)cc2OC2CC2)ncc1Cl	103	15	
Cc1cc(Nc2ncc(Cl)c(Nc3cn(C)nc3S(=O)(=O)C(C)C)n2)c(C(C)C)cc1C1CCN(C)CC1	660		
Cc1cc(Nc2ncc(Cl)c(Nc3cn(C)nc3S(=O)(=O)C(C)C)n2)c(OCC2CC2)cc1C1CCN(C)CC1	226	74	
Cc1cc(Nc2ncc(Cl)c(Nc3cn(C)nc3S(=O)(=O)C(C)C)n2)c(OC(C)C)cc1C1CCNC1 (stereo not drawn)	364	28	
Cc1cc(Nc2ncc(Cl)c(Nc3cn(C)nc3S(=O)(=O)C(C)C)n2)c(OC2CC2)cc1C1CCCN(C)C1 (stereo not drawn)	32	3	IC50 [1]: 7 nM; IC50 [3]: 3 nM
Cc1cc(Nc2ncc(Cl)c(Nc3cn(C)nc3S(=O)(=O)C(C)C)n2)c(OC(C)C)cc1C1CCN(C)C1 (stereo not drawn)	131	11	
Cc1cc(Nc2ncc(Cl)c(Nc3cn(C)nc3S(=O)(=O)C(C)C)n2)c(OC(C)C)cc1C1CNC1	288	60	
Cc1cc(Nc2ncc(Cl)c(Nc3cn(C)nc3S(=O)(=O)C(C)C)n2)c(OC2CC2)cc1C1CCN(C)CC1			clearance [4]: 22.7 mL/min/kg
CS(=O)(=O)O.Cc1cc(Nc2ncc(Cl)c(Nc3cn(C)nc3S(=O)(=O)C(C)C)n2)c(OC(C)C)cc1C1CCN(C)CC1			half-life [5]: 4.9 h; Tmax [6]: 2 h; clearance [7]: 26.2 mL/min/kg; Activity (Mus musculus): Non-toxic; bioavailability [8]: 49.2%; AUC(0-inf) [9]: 988 ng·h/mL; AUC(0-inf) [10]: 637 ng·h/mL; Cmax [11]: 85.8 ng/mL; bioavailability [12]: 63.2%; clearance [13]: 16.9 mL/min/kg; half-life [14]: 5.1 h; Cmax [15]: 199 ng/mL; Vd [16]: 7.5 L/kg; AUC(0-inf) [17]: 3120 ng·h/mL; Tmax [18]: 6.7 h; Vd [19]: 11 L/kg; AUC(0-inf) [20]: 952 ng·h/mL
CC(C)S(=O)(=O)c1nn(C)cc1Nc1nc(Nc2ccc(C3CCN(C)CC3)cc2OC2CC2)ncc1Cl	36	7	clearance [4]: 79.8 mL/min/kg
Cc1cc(Nc2ncc(Cl)c(Nc3cn(C)nc3S(=O)(=O)C(C)C)n2)c(OCC2CC2)cc1C1CCNCC1	262	43	
Cc1cc(Nc2ncc(Cl)c(Nc3cn(C)nc3S(=O)(=O)C(C)C)n2)c(OC2CC2)cc1C1CCN(C(=O)C(C)C)CC1	149		IC50 [1]: 29 nM; IC50 [3]: 26 nM

— ChEMBL document CHEMBL3603807, “Discovery of 2-arylamino-4-(1-methyl-3-isopropylsulfonyl-4-pyrazol-amino)pyrimidines as potent anaplastic lymphoma kinase (ALK) inhibitors” (Bioorg Med Chem Lett, 2015)
